Assay results: patent publication EP2138169B1, “Transdermal delivery system of hormones without penetration enhancers” (Bayer Intellectual Property GmbH, priority 2003, dated 2005)

Assays:
clinical = test: clinical; design: species or system women; settings: female, human, in vivo
Description: The effect on ovulation inhibition, serum drug concentrations and safety of a patch of the invention was investigated in a selected population of women. The study design was based on the requirements of the EMEA quideline for clinical studies with contraceptive steroids (Commitee for Proprietary Medicinal Products, CPMP/EWP 519/98).
Arcare MA-24A® is a polyisobutylene based adhesive from Adhesive Research.
The treatment phase includes a period of two menstrual cycles. The first treatment in the first cycle began one day after the volunteers started menstruating in this cycle by application of a patch. A total of three test patches were applied in intervals of 7 days between, such as application at days 1, 8 and 15 of the first cycle - each at different application sites- during each treatment cycle. Each patch was worn for 7 days, then replaced with a new patch to complete a total of 21 days of continuous use. This was followed by a 7-day treatment-free interval before the next treatment period started with a total of three patches applied, each applied with an interval of 7 days. If the patches were lost or became more than 40% detached, a new patch was applied.
The AUC was calculated according to the linear trapezoidal rule. […]
After incubation and centrifugation, the resultant precipitate was redissolved with NaOH. The assay has a lower limit of quantification of approx. 250 pg/ml.

[1] = cited from earlier work

| Cmax (clinical; Cmax (mean) of ethinyl estradiol (EE)) [ng/mL] | Tmax (clinical; Tmax (mean) of ethinyl estradiol (EE)) [h] | Structure (SMILES) | Maximal plasma levels ([1]; US 5,376,377, ethylene vinyl acrylate adhesive layer, Gestodene and ethinylestradiol) | maximal plasma levels of Gestodene ([1]; WO 92/07590, transdermal compositions with penetration enhancers, Gestodene and an estrogen) |
| --- | --- | --- | --- | --- |
| 0.0456 | 48 | C#C[C@]1(O)CC[C@H]2[C@@H]3CCc4cc(O)ccc4[C@H]3CC[C@@]21C [Ethinylestradiol] |  |  |
|  |  | C#C[C@]1(O)C=C[C@H]2[C@@H]3CCC4=CC(=O)CC[C@@H]4[C@H]3CC[C@@]21CC [Gestodene, 13β-Ethyl-17α-ethynyl-17β-hydroxy-4,15-gonadien-3-one] | about 0.8 ng/ml | about 0.9 ng/ml |
